Assay results: paper PMC9156754, “Functional and phylogenetic analysis of TetX variants to design a new classification system” (Communications Biology, 2022)
In brackets after ≈: the same amount, converted by molar mass. Read-outs that look alike come from different tables or passages of the source.

Key:
[1] = test system: T1, Escherichia coli Vector control; test: microbe, parasite or virus in culture; parameters: broth microdilution MIC, growth of E. coli, CLSI guidelines; conditions: empty pBAD18 vector
T1 construct: BW25113 empty pBAD18-Kan vector
Procedure: (§1) The MICs of three antibiotics (tetracycline, minocycline, and tigecycline) for strains were determined using the microbroth dilution method and the results were interpreted according to the CLSI guidelines. For tigecycline, the breakpoint was interpreted according to the FDA criteria (susceptible, ≤2 mg/L; intermediate, 4 mg/L; resistant, ≥8 mg/L)[9]. E. coli strain ATCC 25922 was used as a quality control. The tet(X2) (WP_063856436.1), tet(X3) (WP024160783), and tet(X4) (WP094309310) genes were amplified from dairy cows’ clinical isolates[25] by PCR with primers listed in Supplementary Table 1. Then these genes were constructed into pBAD-18Kan vector and IPTG-inducible pET28b vector, respectively. The recombinant plasmids pBAD-18-tet(X2), pBAD-18-tet(X3) and pBAD-18-tet(X4) were transformed into E. coli BW25113 and followed by antimicrobial susceptibility tests. In addition, the recombinant plasmids pET28-6×His-tet(X2), pET28-6×His-tet(X3) and pET28-6×His-tet(X4) were transformed into E. coli strain BL21(DE3) for protein purification. Point mutations were introduced into the tet(X2) gene, tet(X3) gene and tet(X4) by using the QuickChange (Stratagene) commercial kit, following the manufacturer’s instructions, and confirmed by sequencing. Primers used in mutagenesis are also listed in Supplementary Table 1.

E. coli 25922 = test system: T2, E. coli 25922; test: microbe, parasite or virus in culture; parameters: broth microdilution MIC, growth of E. coli, CLSI guidelines; conditions: Escherichia coli
T2 construct: ATCC 25922
Procedure: as §1

[2] = test system: CN(C)c1cc(NC(=O)CNC(C)(C)C)c(O)c2c1C[C@H]1C[C@H]3[C@H](N(C)C)C(=O)C(C(N)=O)=C(O)[C@@]3(O)C(=O)C1=C2O; test: purified protein; assay type: biochemical, Escherichia coli; conditions: 0.1 M TAPS pH 8.5, 5 mM MgCl2, 500 µM NADPH, ambient temperature

With `CN(C)c1ccc(O)c2c1C[C@H]1C[C@H]3[C@H](N(C)C)C(O)=C(C(N)=O)C(=O)[C@@]3(O)C(O)=C1C2=O` [minocycline] the MIC ([1]; read-out: MIC (mg/L) / MIN) was 1 mg/L (≈ 2.19 µM) and the MIC (E. coli 25922; read-out: MIC (mg/L) / MIN) was 0.25 mg/L (≈ 0.546 µM).

`CN(C)[C@@H]1C(O)=C(C(N)=O)C(=O)[C@@]2(O)C(O)=C3C(=O)c4c(O)cccc4[C@@](C)(O)[C@H]3C[C@@H]12` [tetracycline] was tested, and the MIC ([1]; read-out: MIC (mg/L) / TET^a) was 2 mg/L (≈ 4.5 µM) and the MIC (E. coli 25922; read-out: MIC (mg/L) / TET^a) was 1 mg/L (≈ 2.25 µM).

`CN(C)c1cc(NC(=O)CNC(C)(C)C)c(O)c2c1C[C@H]1C[C@H]3[C@H](N(C)C)C(=O)C(C(N)=O)=C(O)[C@@]3(O)C(=O)C1=C2O` [tigecycline] gave an MIC ([1]; read-out: MIC (mg/L) / TGC) of 0.5 mg/L (≈ 0.854 µM) and an MIC (E. coli 25922; read-out: MIC (mg/L) / TGC) of 0.25 mg/L (≈ 0.427 µM).

Tet(X4) (Escherichia coli) showed a Km [2] of 1.73 ± 0.09 µM, a kcat [2] of 2 ± 0.02 s⁻¹ and a kcat/Km [2] of 1.16e+06 M⁻¹ s⁻¹.
